“Also recorded” adds a separate entry of the source.
How the values were obtained:
[1] = test system: PKD1; test: PKD1 phosphorylation (activation) in stimulated mouse cortical neurons, western blot; type: cell-based; settings: for effect on glutamate-induced PKD1 phosphorylation: antagonist applied with glutamate; for PKD1 phosphorylation at activation loop (S744/8) and autophosphorylation (S916) sites after stimulation: mouse cortical cultures, substance applied alone, 10 min
[2] = test system: Venus-PKD1; test: Venus-PKD1 translocation to dendritic puncta (puncta index) in transfected neurons; type: cell-based, mouse; settings: for effect on glutamate-induced Venus-PKD1 puncta formation: drug applied with glutamate; for Venus-PKD1 translocation / puncta formation induced by the substance: substance applied alone, glutamate 30 μM, ACPD 500 μM, K+ 55 mM in the presence of APV
[3] = test system: pH-GluR2; test: pHluorin GluR2 recycling assay in mouse cortical neurons; type: cell-based
Source text: Rat GluR2 tagged with superecliptic pHluorin was cloned into pGW1 mammalian expression vector. mCherry was subcloned to replace enhanced green fluorescent protein (EGFP) in FUGW PKD1 shRNA and control vectors. mCherry served as a morphology marker to monitor the overall health of the cell. pHluorin-GluR2 and PKD1 shRNA or mutant control were transfected into mouse cortical neurons with Lipofectamine 2000 (Invitrogen). At 12 DIV, neurons were imaged on a Zeiss LSM 510 confocal microscope with a 40× water immersion lens in HBS as described above, only nimodipine was excluded. After 20 min of baseline imaging, 30 μM glutamate and 10 μM glycine were washed on to cells by gravity flow perfusion for 5 min, followed by washout with control HBS solution. Images were collected every 5 min. Average pixel intensity of pH-GluR2 in the cell body was calculated in MetaMorph, and background was measured in a cell-free region of the image and subtracted from fluorescence intensities before further calculations. Fractional change in fluorescent intensity (ΔF/F0) was calculated as Ft−F0/F0, where Ft is pHGluR2 intensity at time t and F0 is the average pH-GluR2 fluorescence intensity at four points before glutamate application.

Molecule: NC(CCCP(=O)(O)O)C(=O)O (racemic) [APV, D,L-2-amino-5-phosphonovaleric acid]
- effect on glutamate-induced PKD1 phosphorylation [1]: did not block phosphorylation
- effect on glutamate-induced Venus-PKD1 puncta formation [2]: blocked

Molecule: N[C@@]1(C(=O)O)CC[C@@H](C(=O)O)C1 [ACPD, (1S,3R)-1-aminocyclopentane-1,3-dicarboxylic acid]
- PKD1 phosphorylation at activation loop (S744/8) and autophosphorylation (S916) sites after stimulation ([1]; glutamate 30 μM): induced phosphorylation
- Venus-PKD1 translocation / puncta formation induced by the substance [2]: did not induce translocation

Molecule: N[C@H](C(=O)O)c1cc(O)cc(O)c1 [DHPG, (S)-3,5-dihydroxyphenylglycine]
- PKD1 phosphorylation at activation loop (S744/8) and autophosphorylation (S916) sites after stimulation ([1]; glutamate 30 μM): induced phosphorylation

Molecule: CN(C)CCCn1cc(C2=C(c3c[nH]c4ccccc34)C(=O)NC2=O)c2ccccc21 [GF109203X]
- effect on glutamate-induced Venus-PKD1 puncta formation [2]: had no effect
- effect on glutamate-induced Venus-PKD1 puncta formation ([2]; listed as GF 109203×): did not prevent PKD1 translocation

Molecule: Cn1c2ccccc2c2c3c(c4c5ccccc5n(CCC#N)c4c21)CNC3=O [Gö6976]
- effect on glutamate-induced Venus-PKD1 puncta formation [2]: had no effect

Molecule: COc1ccc2c(c1)c(C1=C(c3c[nH]c4ccccc34)C(=O)NC1=O)cn2CCCN(C)C [Gö6983]
- effect on glutamate-induced Venus-PKD1 puncta formation [2]: did not prevent PKD1 translocation; also recorded: had no effect

Molecule: CC(N)(C(=O)O)c1ccc(C(=O)O)cc1 (stereo not drawn) [MCPG, alpha-methyl-4-carboxyphenylglycine]
- effect on glutamate-induced PKD1 phosphorylation [1]: reduced glutamate-induced PKD1 phosphorylation
- effect on glutamate-induced Venus-PKD1 puncta formation [2]: unaffected

Molecule: CN[C@H](CC(=O)O)C(=O)O [NMDA, N-methyl-D-aspartate]
- PKD1 phosphorylation at activation loop (S744/8) and autophosphorylation (S916) sites after stimulation ([1]; glutamate 30 μM): did not stimulate autophosphorylation
- Venus-PKD1 translocation / puncta formation induced by the substance [2]: puncta formation was induced

Molecule: COc1ccc2c(c1)CC[C@@H]1[C@@H]2CC[C@]2(C)[C@@H](NCCCCCCN3C(=O)C=CC3=O)CC[C@@H]12 [U73122]
- effect on glutamate-induced Venus-PKD1 puncta formation [2]: blocked glutamate-induced puncta formation; also recorded: blocks puncta formation

Molecule: glutamate
- duration of glutamate-induced PKD1 phosphorylation ([1]; glutamate 30 μM, time of stimulation): up to 60 min
- PKD1 phosphorylation at activation loop (S744/8) and autophosphorylation (S916) sites after stimulation ([1]; glutamate 30 μM): rapidly and robustly phosphorylated
- Venus-PKD1 translocation / puncta formation induced by the substance [2]: translocated to discrete puncta throughout the dendrites
- pH-GluR2 fluorescence intensity ([3]; after 5 minutes of glutamate application): ~80 % of baseline
- pH-GluR2 fluorescence recovery ([3]; fifty-five minutes after glutamate stimulation, neurons with endogenous PKD1): > 90 % of baseline
- pH-GluR2 fluorescence intensity at maximal endocytosis ([3]; immediately after glutamate stimulation): 20 % of baseline

B1: BDNF: brain-derived neurotophic factor, activates TrkB receptors (protein, UniProt P23560 19-247, looked up)
Neurotrophic factor BDNF …: APMKEANIRGQGGLAYPGVRTHGTLESVNGPKAGSRGLTSLADTFEHVIEELLDEDQKVRPNEENNKDADLYTSRVMLSSQVPLEPPLLFLLEEYKNYLDAANMSMRVRRHSDPARRGELSVCDSISEWVTAADKKTAVDMSGGTVTVLEKVPVSKGQLKQYFYETKCNPMGYTKEGCRGIDKRHWNSQCRTTQSYVRALTMDSKKRIGWRFIRIDTSCVCTLTIKRGR
- PKD1 phosphorylation at activation loop (S744/8) and autophosphorylation (S916) sites after stimulation ([1]; glutamate 30 μM): did not activate PKD1

Reference: patent publication US9359445B2, “Compositions and methods for treating neurological disorders” (The J. David Gladstone Institutes, priority 2010, dated 2016)
